Reference: patent USRE49035E1, “Traditional Chinese medicine composition, and preparation and application thereof” (Tasly Pharmaceutical Group Co., Ltd., priority 2013, dated 2022)

What was measured:
Type in all cases: in vivo
[1] = system: ADP-induced platelet aggregation; experiment: ADP-induced platelet aggregation rate trial in rabbits; details: ADP final 3 μg/ml; dose 60 mg/kg intragastrically once a day for 7 d
Description: (§1) The rabbits were randomly grouped into 4 groups: the model group was given with distilled water, the aspirin group ([…]), Extract A groups of low dose and high dose at 42 and 84 mg/kg (respectively 1 2 times of clinic equivalent dosage), intragastrically administrated, once a day for 7 consecutive days. The volume of medicine administrated was 1 ml/kg body weight. 60 min after intragastric administration on 7th day, the animals were anesthetized locally, blooded through carotid artery, anticoagulated with sodium citrate (3.8%) 1:9 and centrifugated at 1000 r/min for 10 min. Platelet-rich plasma (PRP) was taken and the remain centrifugated at 3000 r/min to take platelet-poor plasma (PPP. Aggregation was induced by ADP (final concentration 3 μg/ml), AA (final concentration 80 μg/ml) and collagen (5 μg/ml). […] platelet aggregation & coagulation factor analyzer was used to measure the maximum platelet aggregation rate and to calculate inhibition rate according to following formula. [formula]

[2] = system: AA-induced platelet aggregation; experiment: AA-induced platelet aggregation rate trial in rabbits; details: AA final 80 μg/ml; dose 60 mg/kg intragastrically once a day for 7 d
Description: as §1

[3] = system: collagen-induced platelet aggregation; experiment: Collagen-induced platelet aggregation rate trial in rabbits; details: collagen 5 μg/ml; dose 60 mg/kg intragastrically once a day for 7 d
Description: as §1

SMILES: CC(=O)Oc1ccccc1C(=O)O [Aspirin]
- Platelet aggregation rate [1]: 19.15 ± 4.08 %
- Platelet aggregation rate [2]: 5.80 ± 1.85 %
- Platelet aggregation rate [3]: 6.06 ± 2.07 %
